Experiments:
[1] = tested on: adrenal cortex; assay: RNA-Seq and GSEA of the adrenal cortex of HFD mice with or without icosapent ethyl; assay type: in vivo, WT C57BL/6J mice; conditions: HFD with icosapent ethyl versus HFD without; n=4 mice per group
Procedure: Six weeks-old male WT C57BL/6J mice were fed for 20 weeks a LFD (D12450B, Research Diets, NJ, USA) or a HFD (D12492, Research Diets, NJ, USA). In some experiments, WT C57BL/6J mice were fed for 8 weeks a HFD and for another 8 weeks a HFD supplemented with SC-26196 (Biorbyt Ltd). SC-26196 was mixed in the HFD at a concentration of 625 mg/kg of diet corresponding to approx. 100 mg/kg of animal weight. In other experiments WT mice were fed for 10 weeks a HFD and for another 10 weeks a HFD supplemented with icosapent ethyl (Vascepa). […]
For transcriptome mapping, strand-specific paired-end sequencing libraries from total RNA were constructed using TruSeq stranded Total RNA kit (Illumina Inc). […] Low quality nucleotides were removed with the Illumina fastq filter and reads were further subjected to adaptor trimming using cutadapt (85). Alignment of the reads to the Mouse genome was done using STAR Aligner (86) using the parameters: "-runMode alignReads -outSAMstrandField intronMotif-outSAMtype BAM SortedByCoordinate-readFilesCommand zcat". […] The parameters: `htseq-count -f bam -s reverse -m union -a 20', HTSeq-0.6.1p1 (87) were used to count the reads that map to the genes in the aligned sample files. The GTF file (gencode.vM12.annotation.gtf) used for read quantification was downloaded from Gencode (https://www.gencodegenes.org/mouse/release_M12.html). […]

[2] = tested on: primary adrenal cell cultures; assay: Steroid hormone production (LC-MS/MS) in primary adrenal cell cultures treated with SC-26196, with or without ACTH or ARA; assay type: cell-based, WT C57BL/6J mice
Procedure: Adrenal glands or adrenal corteces were isolated from WT C57BL/6J mice, cleaned from the surrounding fat tissue and incubated in collagenase buffer (1.6 mg/ml collagenase type I, 1.6 mg/ml BSA) for 45 min at 37 °C, while shaking at 900 rpm. Dissociated cells were passed through 22 G needle and a 100 µm cell strainer and centrifuged at 300 × g for 5 min at 4 °C. Cells of a pool from two adrenals of each mouse were distributed in four 0.2 % gelatin-precoated wells of a 96-well plate in DMEM/F12 supplemented with 1 % FBS, 50 U/mL penicillin and 50 µg/mL streptomycin. Two hours after seeding 10 µM SC-26196 (Tocris, Wiesbaden-Nordenstadt, Germany) or same amount of carrier (DMSO) were added without changing the medium. In some experiments medium was additionally supplemented with 150 µM ARA (Sigma Aldrich, Germany) or same amount of solvent (endotoxin-free water). When induction of steroidogenesis was required, the medium was changed 18 h after treatment and the cells were incubated with or without 10 ng/mL ACTH for 60 min in the presence of either 10 µM SC-26196 or DMSO. Supernatants were kept for steroid hormone measurement and cell lysates were collected for transcriptional analysis. In some experiments, primary CD31-CD45- adrenocortical cells were treated or not for 18 h with 66 µM EPA (Sigma-Aldrich). Steroid hormones in plasma and cell culture supernatants were analyzed by LC-MS/MS as previously described (71). Fifty to hundred µL plasma or cell culture supernatants were extracted by solid phase extraction using positive pressure, followed by a dry-down under gentle stream of nitrogen. Residues were reconstituted in 100 µL of the initial LC mobile phase and 10 µL were injected for detection by the triple quadrupole mass spectrometer in multiple reaction-monitoring scan mode using positive electrospray ionization. Quantification of steroid concentrations was done by comparisons of ratios of analyte peak areas to respective peak areas of stable isotope labeled internal standards obtained in samples to those of calibrators.

[3] = ARA 150 µM with SC-26196 10 µM, 18 h, n=6-8

Compound	genes being down-regulated in the adrenal cortex (RNA-Seq) [1]	genes being up-regulated in the adrenal cortex (RNA-Seq) [1]	11-deoxycorticosterone production in cells treated with SC-26196 [2, 3]	corticosterone production in cells treated with SC-26196 [2, 3]	progesterone production in cells treated with SC-26196 [2, 3]	steroidogenesis in adrenocortical cells ([2]; ARA supplementation (150 µM))
CC/C=C\C/C=C\C/C=C\C/C=C\C/C=C\CCCC(=O)OCC [icosapent ethyl, eicosapentaenoic acid ethyl ester]	162	266				
CCCCC/C=C\C/C=C\C/C=C\C/C=C\CCCC(=O)O [ARA, all-cis-5,8,11,14-eicosatetraenoic acid]			partially restored	partially restored	partially restored	increased steroidogenesis

Source: patent publication EP4458352A1, “EICOSAPENTAENOIC ACID ESTER DERIVATIVES FOR THE TREATMENT OF OBESITY” (Technische Universität Dresden, priority 2023, dated 2024)
